These results are taken from patent US20240317752A1, “6-SUBSTITUTED-9H-PURINE DERIVATIVES AND RELATED USES” (Black Diamond Therapeutics, Inc., priority 2021, published 2024).

T1 sequence (P15056 whole entry, change not shown, the tested form may be a part): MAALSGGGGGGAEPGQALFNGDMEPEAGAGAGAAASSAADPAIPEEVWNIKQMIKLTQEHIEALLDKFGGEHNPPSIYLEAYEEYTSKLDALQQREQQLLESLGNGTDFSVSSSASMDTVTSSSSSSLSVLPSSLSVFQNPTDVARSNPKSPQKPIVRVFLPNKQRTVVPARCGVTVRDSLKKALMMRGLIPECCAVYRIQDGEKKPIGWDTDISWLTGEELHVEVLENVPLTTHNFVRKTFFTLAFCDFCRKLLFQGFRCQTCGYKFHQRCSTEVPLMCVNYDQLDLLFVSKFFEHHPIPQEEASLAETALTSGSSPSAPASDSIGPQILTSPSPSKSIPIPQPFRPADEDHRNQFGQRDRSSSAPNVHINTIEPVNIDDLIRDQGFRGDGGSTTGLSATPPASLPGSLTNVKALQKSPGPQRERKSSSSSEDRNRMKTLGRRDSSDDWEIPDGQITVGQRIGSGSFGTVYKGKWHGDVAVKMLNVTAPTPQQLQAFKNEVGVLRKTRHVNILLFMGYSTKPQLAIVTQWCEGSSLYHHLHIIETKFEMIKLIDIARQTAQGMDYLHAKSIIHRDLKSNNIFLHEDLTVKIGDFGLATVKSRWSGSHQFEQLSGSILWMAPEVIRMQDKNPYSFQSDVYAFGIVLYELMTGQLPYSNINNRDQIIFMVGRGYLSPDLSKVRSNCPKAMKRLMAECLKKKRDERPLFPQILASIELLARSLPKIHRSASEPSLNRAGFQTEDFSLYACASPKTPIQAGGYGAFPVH

This experiment addresses T1, BaF3 BRAF-KIAA1549 fusion cells (Homo sapiens, UniProt P15056).
T1 construct: The BRAF-KIAA1549 fusion mutant was subcloned into pMXs-IRES-Blasticidin (RTV-016, Cell Biolabs, San Diego, CA); fused on or other part: Q9HCM3 (UPF0606 protein KIAA1549)
Description: BaF3 BRAF-KIAA1549 fusion cell proliferation assay (CellTiterGlo). The class given is cell-based. The following applies: 96 hours incubation, potency code. The procedure:
Retroviral Production: The BRAF-KIAA1549 fusion mutant was subcloned into pMXs-IRES-Blasticidin (RTV-016, Cell Biolabs, San Diego, CA). Retrovirus was produced by transfection of HEK 293T cells with the retroviral BRAF mutant expression vector pMXs-IRES-Blasticidin (RTV-016, Cell Biolabs), pCMV-Gag-Pol vector and pCMV-VSV-G-Envelope vector. Briefly, HEK 293T cells were plated in Poly-D-lysine coated 6-well plate (2.5×10^5 cells per well) and incubated overnight. The next day, retroviral plasmids (1 μg of BRAF-KIAA fusion mutant, 0.32 μg of pCMV-Gag-Pol and 0.165 μg pCMV-VSV-G) were mixed in 300 μL of Optimem (31985, Life Technologies). The mixture was incubated at room temperature for 5 minutes and then added to Optimem containing transfection reagent Lipofectamine (11668, Invitrogen) and incubated for 20 minutes. The mixture was then added dropwise to HEK 293T cells. The next day the medium was replaced with fresh culture medium and retrovirus was harvested at 24 hours.
Generation of BRAF-KIAA1549 fusion stable cell line: BaF3 cells were plated in V-bottom 96 well plate (COSTAR #3894) in 80 μL of RPMI/10% FBS and 0.01 ng/ml mouse IL-3; supplemented with 8 μg/mL polybrene (4×10^4 cells/well). Cells were transduced with 20 μL of BRAF-KIAA1549 fusion viral supernatant by centrifuging for 30 minutes at 1000 rpm. Cells were placed in a 37° C. incubator overnight. Next day 100 μL of RPMI/10% FBS and 0.01 ng/ml mouse IL-3 was added. After 24 hours, 100 μL of cells were transferred to a 24 well plate containing 900 μL of RPMI/10% FBS and 15 μg/mL Blasticidin. Contents of the 24 well plate were sampled for cell viability via CellTiterGlo (Promega) over a 2-week period.
Assay for cell proliferation: BaF3 BRAF-KIAA1549 fusion cells were resuspended at 1.5×10^5c/mL in RPMI containing 10% Heat Inactivated FBS, 1% L-glutamine and dispensed in duplicate ([…]) into 384 well plates. To determine the effect of compound on cell proliferation, BaF3 BRAF-KIAA1549 fusion cells were incubated for 96 hours in the presence of vehicle control (DMSO) or compound at varying concentrations. Inhibition of cell growth was determined by luminescent quantification (Envision by Perkin Elmer) of intracellular ATP content using CellTiterGlo (Promega), according to the protocol provided by the manufacturer. To determine the IC50 values, the vehicle-treated cells were normalized as viable cells and analyzed using the CDD Vault, Collaborative Drug Discovery, Burlingame, CA (the Levenberg-Marquardt algorithm; Levenberg, K., […]; Marquardt, D., 1963).
Tables A1 and A2 assign each compound a code for potency in the BaF3 BRAF-KIAA1549 fusion cell proliferation assay: A, B, C, or D. According to the code, A represents an IC50 value <20 nM; B represents an IC50 value ≥20 nM and <100 nM; C represents an IC50 value ≥100 nM and <500 nM; and D represents an IC50 value ≥500 nM.
With `Cc1cnc(C(=O)Nc2ccc(C)c(Nc3ncccc3-c3ncnc4[nH]cnc34)c2)cc1C#N` [Compound I-71, N-(3-((3-(9H-purin-6-yl)pyridin-2-yl)amino)-4-methylphenyl)-4-cyano-5-methylpicolinamide], the 50% growth inhibitory concentration (GI50) (commonly the concentration giving 50% growth inhibition) was in the range of 20 to 100 nM.

In turn, `Cc1ccc(NC(=O)CN2CCCCC(F)(F)C2)cc1Nc1ncccc1-c1ncnc2[nH]cnc12` [IA-112, N-(3-(3-(9H-purin-6-yl)pyridin-2-ylamino)-4-methylphenyl)-2-(3,3-difluoroazepan-1-yl)acetamide] registered a GI50 of 100 to 500 nM. On to `Cc1ccc(NC(=O)c2cc(C3(C#N)CCC3)ccn2)cc1Nc1ncccc1-c1ncnc2[nH]cnc12` [Compound I-64, N-(3-((3-(9H-purin-6-yl)pyridin-2-yl)amino)-4-methylphenyl)-4-(1-cyanocyclobutyl)picolinamide], for which the GI50 was under 20 nM. Compound `Cc1ccc(C(=O)Nc2cc(C(C)(C)C)nn2C2CC2)cc1Nc1ncccc1-c1ncnc2[nH]cnc12` [Compound I-79, 3-((3-(9H-purin-6-yl)pyridin-2-yl)amino)-N-(3-(tert-butyl)-1-cyclopropyl-1H-pyrazol-5-yl)-4-methylbenzamide] came in with a GI50 of 100 to 500 nM. The value for `Cc1ccc(-c2ncnc3[nH]cnc23)c(Nc2cc(NC(=O)c3cc(C(F)(F)F)ccn3)ccc2C)n1` [Compound I-67, N-(4-methyl-3-((6-methyl-3-(9H-purin-6-yl)pyridin-2-yl)amino)phenyl)-4-(trifluoromethyl)picolinamide] was 20 to 100 nM. In the case of `Cc1ccc(NC(=O)c2cc(C(F)(F)F)ccn2)cc1Nc1ncccc1-c1ncnc2[nH]c(OCCN(C)C)nc12` [IA-124, N-(3-(3-(8-(2-(dimethylamino)ethoxy)-9H-purin-6-yl)pyridin-2-ylamino)-4-methylphenyl)-4-(trifluoromethyl)picolinamide] it was 20 to 100 nM; in that of `Cc1ccc(C(=O)Nc2cc(C(F)(F)F)ccn2)cc1Nc1ncccc1-c1ncnc2[nH]cnc12` [Compound I-34, 3-((3-(9H-purin-6-yl)pyridin-2-yl)amino)-4-methyl-N-(4-(trifluoromethyl)pyridin-2-yl)benzamide], 20 to 100 nM; in that of `Cc1ccc(NC(=O)CC2CCNC(C(F)(F)F)C2)cc1Nc1ncccc1-c1ncnc2[nH]cnc12` (centres unmarked) [Compound I-76, N-(3-((3-(9H-purin-6-yl)pyridin-2-yl)amino)-4-methylphenyl)-2-(2-(trifluoromethyl)piperidin-4-yl)acetamide], at least 500 nM.

Take `Cc1ccc(NC(=O)CN2CCC[C@@H](C(F)(F)F)C2)cc1Nc1ncccc1-c1ncnc2[nH]cnc12` [IA-107, (R)—N-(3-((3-(9H-purin-6-yl)pyridin-2-yl)amino)-4-methylphenyl)-2-(3-(trifluoromethyl)piperidin-1-yl)acetamide]: the 50% growth inhibitory concentration (GI50) was under 20 nM. `Cc1ccc(NC(=O)C[C@@H]2CCC[C@H](C(F)(F)F)C2)cc1Nc1ncccc1-c1ncnc2[nH]cnc12` (single isomer, unassigned) [IA-138] gave a concentration for 50% growth inhibition (GI50) of under 20 nM. In the case of `Cc1ccc(NC(=O)c2ncc(C)c(C(F)(F)F)c2F)cc1Nc1ncccc1-c1ncnc2[nH]cnc12` [IA-91, N-(3-(3-(9H-purin-6-yl)pyridin-2-ylamino)-4-methylphenyl)-3-fluoro-5-methyl-4-(trifluoromethyl)picolinamide] it was 20 to 100 nM; in that of `Cc1ccc(NC(=O)c2cc(C(F)(F)F)c(OCCO)cn2)cc1Nc1ncccc1-c1ncnc2[nH]cnc12` [IA-104, N-(3-(3-(9H-purin-6-yl)pyridin-2-ylamino)-4-methylphenyl)-5-(2-hydroxyethoxy)-4-(trifluoromethyl)picolinamide], under 20 nM. The compound `CCc1cnc(C(=O)Nc2ccc(C)c(Nc3ncccc3-c3ncnc4[nH]cnc34)c2)cc1C(F)(F)F` [IA-92, N-(3-(3-(9H-purin-6-yl)pyridin-2-ylamino)-4-methylphenyl)-5-ethyl-4-(trifluoromethyl)picolinamide] gave a GI50 of 20 to 100 nM. For `Cc1nc2c(-c3cccnc3Nc3cc(NC(=O)c4cc(C(O)C(F)(F)F)ccn4)ccc3C)ncnc2[nH]1` (centres unmarked) [IA-130, N-(4-methyl-3-((3-(8-methyl-9H-purin-6-yl)pyridin-2-yl)amino)phenyl)-4-(2,2,2-trifluoro-1-hydroxyethyl)picolinamide], the GI50 is under 20 nM.

Consider `Cc1ccc(NC(=O)c2cc(C(F)(F)F)ccn2)cc1Nc1nccnc1-c1ncnc2[nH]cnc12` [IA-120, N-(3-(3-(9H-purin-6-yl)pyrazin-2-ylamino)-4-methylphenyl)-4-(trifluoromethyl)picolinamide], for which the GI50 lay in the range of 20 to 100 nM. `Cc1ccc(NC(=O)CC2CCOC(C(F)(F)F)C2)cc1Nc1ncccc1-c1ncnc2[nH]cnc12` (centres unmarked) [Compound I-75, N-(3-((3-(9H-purin-6-yl)pyridin-2-yl)amino)-4-methylphenyl)-2-(2-(trifluoromethyl)tetrahydro-2H-pyran-4-yl)acetamide]: the GI50 lay within 20 to 100 nM.

Regarding `Cc1ccc(NC(=O)c2cc(C(F)(F)F)c(OCCN(C)C)cn2)cc1Nc1ncccc1-c1ncnc2[nH]cnc12` [IA-97, N-(3-(3-(9H-purin-6-yl)pyridin-2-ylamino)-4-methylphenyl)-5-(2-(dimethylamino)ethoxy)-4-(trifluoromethyl)picolinamide], the 50% growth inhibitory concentration (GI50) was under 20 nM. Compound `Cc1ccc(NC(=O)CN2CCCCCC2)cc1Nc1ncccc1-c1ncnc2[nH]cnc12` [IA-110, N-(3-((3-(9H-purin-6-yl)pyridin-2-yl)amino)-4-methylphenyl)-2-(azepan-1-yl)acetamide] came in with a GI50 of 20 to 100 nM. The value for `Cc1ccc(NC(=O)C[C@H]2CCO[C@@H](C(F)(F)F)C2)cc1Nc1ncccc1-c1ncnc2[nH]cnc12` (single isomer, unassigned) [IA-146] was 20 to 100 nM; that for `Cc1ncc(NC(=O)c2cncc(C(F)(F)F)c2)cc1Nc1ncccc1-c1ncnc2[nH]cnc12` [Compound I-18, N-(5-(3-(9H-purin-6-yl)pyridin-2-ylamino)-6-methylpyridin-3-yl)-5-(trifluoromethyl)nicotinamide] was 20 to 100 nM; that for `Cc1ccc(C(=O)Nc2ccc(C)c(Nc3ncccc3-c3ncnc4[nH]cnc34)c2)cc1C#N` [Compound I-43, N-(3-((3-(9H-purin-6-yl)pyridin-2-yl)amino)-4-methylphenyl)-3-cyano-4-methylbenzamide] was under 20 nM. Compound `Cc1cc(NC(=O)c2cc(C(F)(F)F)ccn2)cc(Nc2ncccc2-c2ncnc3[nH]cnc23)c1C` [Compound I-63, N-(3-((3-(9H-purin-6-yl)pyridin-2-yl)amino)-4,5-dimethylphenyl)-4-(trifluoromethyl)picolinamide] gave a 50% growth inhibitory concentration (GI50) of 100 to 500 nM. In the case of `Cc1ccc(NC(=O)c2cc(C(F)(F)F)ccn2)cc1Nc1nccc(F)c1-c1ncnc2[nH]cnc12` [IA-117, N-(3-(4-fluoro-3-(9H-purin-6-yl)pyridin-2-ylamino)-4-methylphenyl)-4-(trifluoromethyl)picolinamide] it was 100 to 500 nM; in that of `Cc1ccc(NC(=O)CC2CCCCOC2)cc1Nc1ncccc1-c1ncnc2[nH]cnc12` (centres unmarked) [IA-99, N-(3-(3-(9H-purin-6-yl)pyridin-2-ylamino)-4-methylphenyl)-2-(oxepan-3-yl)acetamide], 20 to 100 nM. As for `Cc1ccc(NC(=O)c2nccc(C(F)(F)F)c2Cl)cc1Nc1ncccc1-c1ncnc2[nH]cnc12` [IA-106, N-(3-(3-(9H-purin-6-yl)pyridin-2-ylamino)-4-methylphenyl)-3-chloro-4-(trifluoromethyl)picolinamide], the GI50 is under 20 nM. Take `Cc1ccc(C(=O)Nc2cccc(C(F)(F)F)c2)cc1Nc1ncccc1-c1ncnc2[nH]cnc12` [II-3, 3-((3-(9H-Purin-6-yl)pyridin-2-yl)amino)-4-methyl-N-(3-(trifluoromethyl)phenyl)benzamide]: the GI50 is under 20 nM.
